Results taken from patent publication US20240300933A1, “SALT AND CRYSTAL FORMS OF AN HMOX1 INDUCER” (MITOBRIDGE INC., priority 2021, published 2024).
≈ marks a conversion by molar mass, not a printed value. Blank lines part the entries; values can stand above or below the compound they belong to.

What was measured:
[1] = PK study in Cynomolgus macaques, PO single dose; type: in vivo, Cynomolgus macaques (Macaca fascicularis); details: for exposure (AUC) compared to the free form, in words: Cynomolgus monkeys, monophosphate; for AUC(0-inf) / AUC(0-t) / Cmax: male, cynomolgus monkey, blood
Experimental: A PK Study of Crystalline form of 1:1 compound (I) Phosphate and compound (I) crystal form was conducted in Cynomolgus macaques (Cynomolgus non-human primates; Macaca fascicularis). […] Blood samples were collected at 0.25, 0.5, 1, 2, 4, 6, 8 and 24 hours, and were analyzed to determine Cmax and exposure (AUC).

[2] = Thermodynamic solubility in water and bio-media (SGF, FaSSIF, FeSSIF) at 37° C.; type: physicochemical; details: for pH / FC (Form Change) / solubility at 1 h / solubility at 4 h / solubility at 24 h: 37° C.; for pH: filtrate of supernatant; for solubility at 1 h / solubility at 4 h / solubility at 24 h: thermodynamic from solid
Experimental: Specifically, about 40 mg samples (calculated with freebase) were added to 4.0 mL of each buffer. After shaking at 100 rpm at 37° C. for 1/4/24 hour(s), about 1.0 mL of each suspension was centrifuged for 5 minutes. The solids were analyzed by XRPD for crystal form, and the filtrates of supernatants were detected by HPLC for solubility and by pH meter for pH value.

[3] = Hygroscopicity by dynamic vapor sorption (DVS); details: for weight gain: DVS, 25° C., at 90% RH; for hygroscopicity compared with the citrate salt, in words: monophosphate
Experimental: Dynamic vapor sorption (DVS) was performed with an ADVENTURE series DVS at 25° C. under nitrogen blow. Approximately 30 milligrams of material was used.

[4] = pKa of the freebase form; type: physicochemical; details: basic
[5] = Cynomolgus macaques, 10 mg/Kg PO single dose
[6] = Cynomolgus macaques, 100 mg/Kg PO single dose
[7] = simulated gastric fluid, SGF, 1 Hr
[8] = simulated gastric fluid, SGF, 4 Hrs
[9] = simulated gastric fluid, SGF, 24 Hrs

higher exposure compared to free form Compound (I) ([1]; Cynomolgus macaques, 10 and 100 mpk oral dose): 1.5 times | Cmax compared to the free form, in words ([1]; Cynomolgus macaques, Table 7): roughly double | exposure (AUC) compared to the free form, in words ([1]; 10 and 100 mpk oral dose, listed as phosphate salt): roughly double | exposure (AUC) compared to the free form, in words ([1]; 10 and 100 mpk oral dose): roughly twice the exposure | AUC(0-inf) [1, 5]: 3.59 µg·h/mL | AUC(0-t) [1, 5]: 3.48 µg·h/mL | Cmax [1, 5]: 0.322 µg/mL | AUC(0-inf) [1, 6]: 9.33 µg·h/mL | AUC(0-t) [1, 6]: 7.58 µg·h/mL | Cmax [1, 6]: 0.723 µg/mL | solubility compared to Compound (I), in words ([2]; FaSSIF and SGF): improved solubility | pH ([2]; FaSSIF, 1 Hr): 2.37 | FC (Form Change) ([2]; FaSSIF, 1 Hr, solid by XRPD): Yes | pH ([2]; FaSSIF, 4 Hrs): 2.37 | pH ([2]; FaSSIF, 24 Hrs): 2.36 | pH ([2]; FeSSIF, 1 Hr): 4.06 | FC (Form Change) ([2]; FeSSIF, 1 Hr, solid by XRPD): Yes | pH ([2]; FeSSIF, 4 Hrs): 4.21 | pH ([2]; FeSSIF, 24 Hrs): 4.31 | FC (Form Change) ([2]; SGF, 1 Hr): Clear | pH ([2]; SGF, 1 Hr): 1.36 | FC (Form Change) ([2]; SGF, 4 Hrs): Clear | pH ([2]; SGF, 4 Hrs): 1.37 | FC (Form Change) ([2]; SGF, 24 Hrs): Clear | pH ([2]; SGF, 24 Hrs): 1.41 | solubility at 1 h [2, 7]: > 25.9 mg/mL | solubility at 4 h [2, 8]: > 28.4 mg/mL | solubility at 24 h [2, 9]: > 28.4 mg/mL | solubility at 1 h ([2]; FaSSIF, 1 Hr): 0.19 mg/mL | solubility at 4 h ([2]; FaSSIF, 4 Hrs): 0.18 mg/mL | solubility at 24 h ([2]; FaSSIF, 24 Hrs): 0.07 mg/mL | solubility at 1 h ([2]; FeSSIF, 1 Hr): 1.4 mg/mL | solubility at 4 h ([2]; FeSSIF, 4 Hrs): 0.77 mg/mL | solubility at 24 h ([2]; FeSSIF, 24 Hrs): 0.39 mg/mL | solubility at 1 h ([2]; water, 1 Hr): 4.39 mg/mL | solubility at 4 h ([2]; water, 4 Hrs): 3.23 mg/mL | solubility at 24 h ([2]; water, 24 Hrs): 2.06 mg/mL | solubility compared to the free form, in words ([2]; water and bio-relevant media): significant solubility improvement | pH ([2]; water, 1 Hr): 2.05 | FC (Form Change) ([2]; water, 1 Hr, solid by XRPD): Yes | pH ([2]; water, 4 Hrs): 2.04 | pH ([2]; water, 24 Hrs): 1.97 | weight gain [3]: 0.835% | hygroscopicity compared with the citrate salt, in words ([3]; listed as phosphate salt): lower hygroscopicity | hygroscopicity compared with the citrate salt, in words [3]: low hygroscopicity
Compound: Cn1c(Nc2nc3ccccc3o2)nc2cc(C(=O)NCCOCCO)ccc21.O=P(O)(O)O [1:1 Compound (I) Phosphate, 2-[(1,3-benzoxazol-2-yl)amino]-N-[2-(2-hydroxyethoxy)ethyl]-1-methyl-1H-benzimidazole-5-carboxamide monophosphate]

pKa [4]: ~2.75 | AUC(0-inf) [1, 5]: 2.03 µg·h/mL | AUC(0-t) [1, 5]: 1.93 µg·h/mL | Cmax [1, 5]: 0.164 µg/mL | AUC(0-inf) [1, 6]: 4.75 µg·h/mL | AUC(0-t) [1, 6]: 4.08 µg·h/mL | Cmax [1, 6]: 0.35 µg/mL | pH ([2]; FaSSIF, 1 Hr): 6.30 | FC (Form Change) ([2]; FaSSIF, 1 Hr, solid by XRPD): No | pH ([2]; FaSSIF, 4 Hrs): 6.35 | FC (Form Change) ([2]; FaSSIF, 4 Hrs, solid by XRPD): No | pH ([2]; FaSSIF, 24 Hrs): 5.99 | FC (Form Change) ([2]; FaSSIF, 24 Hrs, solid by XRPD): No | pH ([2]; FeSSIF, 1 Hr): 4.78 | FC (Form Change) ([2]; FeSSIF, 1 Hr, solid by XRPD): No | pH ([2]; FeSSIF, 4 Hrs): 4.73 | FC (Form Change) ([2]; FeSSIF, 4 Hrs, solid by XRPD): No | pH ([2]; FeSSIF, 24 Hrs): 4.81 | FC (Form Change) ([2]; FeSSIF, 24 Hrs, solid by XRPD): No | FC (Form Change) ([2]; SGF, 1 Hr): No | pH ([2]; SGF, 1 Hr): 2.34 | FC (Form Change) ([2]; SGF, 4 Hrs): No | pH ([2]; SGF, 4 Hrs): 2.16 | FC (Form Change) ([2]; SGF, 24 Hrs): No | pH ([2]; SGF, 24 Hrs): 2.51 | solubility at 1 h [2, 7]: 7.04 mg/mL (≈ 17.8 mM) | solubility at 4 h [2, 8]: 6.86 mg/mL (≈ 17.3 mM) | solubility at 24 h [2, 9]: 7.08 mg/mL (≈ 17.9 mM) | pH ([2]; water, 1 Hr): 5.69 | FC (Form Change) ([2]; water, 1 Hr, solid by XRPD): No | pH ([2]; water, 4 Hrs): 5.07 | FC (Form Change) ([2]; water, 4 Hrs, solid by XRPD): No | pH ([2]; water, 24 Hrs): 5.95 | FC (Form Change) ([2]; water, 24 Hrs, solid by XRPD): No
Compound: Cn1c(Nc2nc3ccccc3o2)nc2cc(C(=O)NCCOCCO)ccc21 [Compound (I), 2-[(1,3-benzoxazol-2-yl)amino]-N-[2-(2-hydroxyethoxy)ethyl]-1-methyl-1H-benzimidazole-5-carboxamide]

Compound: Citrate
weight gain [3]: 3.223%
